{"source": "patent US11866466B2", "about": "“Tumor homing and cell penetrating peptide-immuno-oncology agent complexes and methods of use thereof” (BLAZE BIOSCIENCE, INC., priority 2017, dated 2024)", "key": {"STING": {"tested_on": "STING", "conditions": "from Lioux et al.; cited from earlier work"}, "Mo7e cells": {"tested_on": "Mo7e cells", "assay": "Mo7e proliferation assay (PrestoBlue)", "format": "cell-based, human", "conditions": "3 days incubation (FIG. 29)", "description": "(§1) This example describes in vitro proliferation of cells treated with peptide-IL-15 agent complexes using cytokine dependent CTLL2 (mouse cytotoxic T lymphocyte cell line), Mo7e (human acute megakaryoblastic leukemia cell line) and human primary CD8+ T cells. All assays were performed in the 96 well plate format in clear bottom black walled tissue culture plates. Peptide-I/O complexes comprising SEQ ID NO: 568, peptide-I/O complexes comprising an IL-15 agent, and peptide-I/O complexes comprising a His-tagged RLI control proteins (SEQ ID NO: 1342) were diluted in culture media without cytokine supplement. […]\nCTLL2 and Mo7e cells were maintained as cell cultures in media containing either IL-2 (CTLL2) or IL-3 (Mo7e). Viability and cell concentration were analyzed using a Viacell cell counter. […]\nAfter the end of the incubation period, PrestoBlue live cell assay reagent (Invitrogen) was added to each well (10 μL per 100 μL well). […] Fluorescence was quantified using an Envision (Perkin Elmer 2104) plate reader. Data was graphed and analyzed in Excel, GraphPad Prism 7, or the AAT Bioquest graphing and EC50 calculator https://www.aatbio.com/tools/ec50-calculator. […]\nAfter the end of the incubation period, PrestoBlue live cell assay reagent (Invitrogen) was added to each well per manufacture instructions. […] PrestoBlue fluorescence was quantified using an Envision (Perkin Elmer 2104) plate reader."}, "[1]": {"tested_on": "CD8+ primary human T cells", "assay": "CD8+ primary human T cell proliferation assay (PrestoBlue)", "format": "cell-based", "conditions": "FIG. 30A", "description": "as §1\n(§2) CD8+ selected primary human T-cells were received as frozen cells and stored in the LN2 vapor phase until used. […] 15 mL of room temperature 10% FBS RPMI media was added to the cell suspension; the cells were then pelleted, resuspended in 10% FBS media, and counted using the Viacell. […]\n(§3) After the end of the incubation period, PrestoBlue live cell assay reagent (Invitrogen) was added to each well (10 μL per 100 μL well). […] Fluorescence was quantified using an Envision (Perkin Elmer 2104) plate reader. Data was graphed and analyzed in Excel, GraphPad Prism 7, or the AAT Bioquest graphing and EC50 calculator https://www.aatbio.com/tools/ec50-calculator."}, "[2]": {"tested_on": "PHA induced T cell blasts", "assay": "PHA induced T cell blast proliferation assay (PrestoBlue)", "format": "cell-based, human", "conditions": "FIG. 30B; same CD8+ T cell donor", "description": "as §1, §2, §3"}, "[3]": {"assay": "Tolerability of intraperitoneal peptide-IL-15 agent complexes in CT26 tumor mice", "format": "in vivo, mouse", "conditions": "1-12 ug in 100 μl, 4 days a week intraperitoneally, 7 doses", "description": "This example describes peptide-IL-15 agent complex accumulation in tumors. Peptide-IL-15 agent complexes such as this in example 18 were expressed and purified. Mice were dosed with 0.2 million CT26 cells, which were allowed to grow for 5 days, at which time tumors were palpable. Mice were dosed with 1-12 ug of SEQ ID NO: 1317, SEQ ID NO: 1321, an RLI, or no agent in 100 μl 4 days a week intraperitoneally. […] After 7 doses, the animals were sacrificed and the tumor tissue was harvested and fixed."}, "A20 lymphoma cells [4]": {"tested_on": "A20 lymphoma cells", "assay": "Intratumoral microinjection in A20 lymphoma tumors, CC3 immunostaining and radial plot analysis", "format": "in vivo, mouse", "conditions": "for CC3 staining (apoptosis) at injection site: 24 hours after administration, complex at 1 μg and 2 μg doses (FIG. 81)"}, "A20 lymphoma cells [5]": {"tested_on": "A20 lymphoma cells", "assay": "Intratumoral microinjection in A20 tumors, IFNb mRNA in situ hybridization (RNAscope)", "format": "in vivo, mouse", "conditions": "4 hours after administration; complex at 1 ug or 2 ug (FIG. 84, FIG. 85)"}, "[6]": {"tested_on": "IFN pathway (JAK/STAT/ISGF3 pathway and/or IRF3 pathway) in SEAP reporter cells; RIG-I", "assay": "B16-Blue IFN-alpha/beta SEAP reporter cell assay", "format": "cell-based, murine", "conditions": "for luminescence signal (RLU) from activating the IFN pathway: 12 pmol or 120 pmol, 24, 48, or 72 hours, no transfection reagent (FIG. 19); for RLU signal in the presence of transfection reagent: with Lipofectamine transfection reagent (FIG. 22)"}, "[7]": {"tested_on": "CT26 colon carcinoma cells", "assay": "Intratumoral microinjection in CT26 flank tumors, cleaved caspase 3 (CC3) immunostaining", "format": "in vivo, mouse"}}, "note": "{ppp} = triphosphate on the strand's 5' end", "data": [{"compound": "Nc1ncnc2c1ncn2C1C[C@@H]2OP(=O)(O)OCC3OC(n4cnc5c(=O)[nH]cnc54)[C@H](F)[C@@H]3OP(=O)(O)OCC2O1", "note": "(stereo partly shown) [Analog 55, c-(dAMP-2′FdIMP)]", "values": [{"measurement": "activity relative to 2′,3′-cGAMP", "setting": "STING", "value": "equivalent in activity to 2′,3′-cGAMP"}]}, {"compound": "SEQ ID NO: 1342: His-tagged RLI protein comprising SEQ ID NO: 1169, SEQ ID NO: 1176 (IL-15Ra sushi+) and SEQ ID NO: 1177 (IL-15)", "values": [{"measurement": "cytokine activity, proliferation", "setting": "Mo7e cells", "value": "stimulate Mo7e cells"}, {"measurement": "cytokine activity, proliferation", "setting": "[1]", "value": "stimulate human CD8+ T cells"}, {"measurement": "cytokine activity, proliferation", "setting": "[2]", "value": "stimulate human CD8+ T cells"}, {"measurement": "tolerability of treatments", "setting": "[3]", "value": "well tolerated"}]}, {"compound": "Nc1ncnc2c1ncn2C1OC2COP(=O)(S)OC3CC(n4cnc5c(=O)[nH]cnc54)OC3COP(=O)(S)OC2C1F", "note": "(stereo not shown) [Analog 56, c-[2′FdAM(PS)-dIM(PS)]]", "values": [{"measurement": "activity relative to 2′,3′-cGAMP", "setting": "STING", "value": "more potent than 2′,3′-cGAMP"}]}, {"compound": "5′ppp hpRNA: I/O comprising a dsRNA SEQ ID NO: 1371 with a 5′ppp, which forms a hairpin structure (GCAUGCGACCUCUGUUUGAUCAAACAGAGGUCGCAUGC; RNA, 5' {ppp}, backbone and methylation of C not given here; hairpin RNA)", "values": [{"measurement": "fraction of cells positive for CC3 staining versus distance from injection site (radial plot)", "setting": "A20 lymphoma cells [4]; 24 hour timepoint, 7-8 tumors per test article, complex at 1 μg and 2 μg (FIG. 82)", "value": "very little increase in CC3 positive cells"}, {"measurement": "CC3 staining (apoptosis) at injection site", "setting": "A20 lymphoma cells [4]", "value": "do not show similarly strong induction of apoptosis"}, {"measurement": "IFNb mRNA staining at injection site", "setting": "A20 lymphoma cells [5]", "value": "significant IFNb mRNA staining"}, {"measurement": "luminescence signal (RLUs) with transfection reagent", "setting": "[6]; 16.2 pmole, 24 hours, with Lipofectamine (FIG. 80)", "value": "High signaling"}]}, {"compound": "Nc1ncnc2c1ncn2C1OC2COP(=O)(O)O[C@@H]3C(COP(=O)(O)O[C@H]2[C@H]1F)OC(n1cnc2c(=O)[nH]cnc21)[C@@H]3F", "note": "(stereo partly shown) [Analog 52, c-(2′FdAMP-2′FdIMP)]", "values": [{"measurement": "activity relative to 2′,3′-cGAMP", "setting": "STING", "value": "more potent than 2′,3′-cGAMP"}]}, {"compound": "Nc1ncnc2c1ncn2C1OC2COP(=O)(O)OC3C(COP(=O)(O)OC2C1O)OC(n1cnc2c(=O)[nH]cnc21)C3O", "note": "(stereo not shown) [Analog 9, 3′,3′c-AIMP]", "values": [{"measurement": "activity relative to 2′,3′-cGAMP", "setting": "STING", "value": "equivalent in activity to 2′,3′-cGAMP"}]}, {"compound": "c-[2′FdAMP(S)-2′FdIMP(S)] [Analog 53]", "values": [{"measurement": "activity relative to 2′,3′-cGAMP", "setting": "STING", "value": "more potent than 2′,3′-cGAMP"}]}, {"compound": "cAIM(PS)2 [Analog 13]", "values": [{"measurement": "activity relative to 2′,3′-cGAMP", "setting": "STING", "value": "more potent than 2′,3′-cGAMP"}]}, {"compound": "Nc1ncnc2c1ncn2C1C[C@@H]2OP(=O)(O)OCC3OC(n4cnc5c(=O)[nH]cnc54)C[C@@H]3OP(=O)(O)OCC2O1", "note": "(stereo partly shown) [Analog 51, c-(dAMP-dIMP)]", "values": [{"measurement": "activity relative to 2′,3′-cGAMP", "setting": "STING", "value": "equivalent in activity to 2′,3′-cGAMP"}]}, {"compound": "dsRNA: SEQ ID NO: 1424 and SEQ ID NO: 1425 (no terminal phosphates on either strand) complexed together (chain 1 GCAUGCGACCUCUGUUUGA; chain 2 UCAAACAGAGGUCGCAUGC; RNA, backbone and methylation of C not given here; further chemistry not fully specified)", "values": [{"measurement": "luminescence signal (RLU) from activating the IFN pathway", "setting": "[6]", "value": "Very little signal"}, {"measurement": "RLU signal in the presence of transfection reagent", "setting": "[6]", "value": "much lower signaling"}]}, {"compound": "Cc1ccc2c(=O)c3cccc(CC(=O)O)c3oc2c1C", "note": "[DMXAA]", "values": [{"measurement": "CC3 staining (apoptosis) at injection site", "setting": "A20 lymphoma cells [4]", "value": "do not show similarly strong induction of apoptosis"}]}, {"compound": "CCN(CC)CCCC(C)Nc1ccnc2cc(Cl)ccc12", "note": "(stereo not shown) [chloroquine]", "values": [{"measurement": "CC3 staining (apoptosis) at injection site", "setting": "[7]; 4 hours post-treatment (FIG. 16)", "value": "did not have a significant region of CC3 staining"}, {"measurement": "CC3 staining (apoptosis) at injection site", "setting": "[7]; 24 h, other animals tested", "value": "One animal showed CC3 staining"}]}, {"compound": "5′ppp dsRNA: SEQ ID NO: 1424 (with triphosphate on the 5′ end) and SEQ ID NO: 1425 (no terminal phosphates) complexed together (chain 1 GCAUGCGACCUCUGUUUGA; chain 2 UCAAACAGAGGUCGCAUGC; chain 1: RNA, 5' {ppp}, backbone and methylation of C not given here; chain 2: RNA, backbone and methylation of C not given here)", "values": [{"measurement": "luminescence signal (RLU) from activating the IFN pathway", "setting": "[6]", "value": "Very little signal"}, {"measurement": "RLU signal in the presence of transfection reagent", "setting": "[6]", "value": "high signaling"}]}, {"compound": "Nc1ncnc2c1ncn2C1OC2COP(=O)(O)OC3CC(n4cnc5c(=O)[nH]cnc54)OC3COP(=O)(O)OC2C1F", "note": "(stereo not shown) [Analog 54, c-(2′FdAMP-dIMP)]", "values": [{"measurement": "activity relative to 2′,3′-cGAMP", "setting": "STING", "value": "equivalent in activity to 2′,3′-cGAMP"}]}, {"compound": "3′,2′c-AIMP [Analog 23]", "values": [{"measurement": "activity relative to 2′,3′-cGAMP", "setting": "STING", "value": "equivalent in activity to 2′,3′-cGAMP"}]}, {"compound": "Nc1ncnc2c1ncn2C1OC2COP(=O)(O)O[C@@H]3C(COP(=O)(O)O[C@@H]1[C@@H]2O)OC(n1cnc2c(=O)[nH]cnc21)[C@@H]3O", "note": "(stereo partly shown) [Analog 10, 2′,3′c-AIMP]", "values": [{"measurement": "activity relative to 2′,3′-cGAMP", "setting": "STING", "value": "equivalent in activity to 2′,3′-cGAMP"}]}]}
